Measurements from PMC2903749 (ACS medicinal chemistry letters, 2010).
Like-named read-outs stand apart in the source and are kept apart here.

Columns and labels:
proline racemase = settings: cited from earlier work
Glutamate racemase (GR) = Glutamate racemase (GR) (Bacillus subtilis, UniProt P94556); experiment: biochemical
Chain of Glutamate racemase (GR) (P94556 whole entry): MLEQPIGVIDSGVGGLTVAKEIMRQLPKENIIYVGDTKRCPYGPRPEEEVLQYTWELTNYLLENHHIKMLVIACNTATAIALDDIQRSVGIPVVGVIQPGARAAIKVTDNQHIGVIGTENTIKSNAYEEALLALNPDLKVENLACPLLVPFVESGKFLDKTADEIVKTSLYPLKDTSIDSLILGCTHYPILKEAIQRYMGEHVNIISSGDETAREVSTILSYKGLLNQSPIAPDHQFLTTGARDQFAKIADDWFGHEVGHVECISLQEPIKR

Row | Structure (SMILES) | Ki (proline racemase; read-out: Ki1, first of two binding states) [µM] | Ki (proline racemase; read-out: Ki2, second of two binding states) [µM] | Ki (Glutamate racemase (GR)) [µM]
1 | O=C(O)c1ccc[nH]1 [PYC, pyrrole-2-carboxylic acid] | 4.6 | 30 | 
2 | NC(=O)CC[C@H](N)C(=O)O [glutamine] |  |  | 50000
